The source of these data is ChEMBL document CHEMBL1152465, “Comparative evaluation of the inhibitory activities of a series of pyrimidinedione congeners that inhibit human immunodeficiency virus types 1 and 2” (Antimicrob Agents Chemother, 2008).

For data set [1], the system named is Human immunodeficiency virus 2. In words: Antiviral activity against HIV2 ROD infected in human CEM-SS cells assessed as inhibition of virus-induced cytopathic effect by XTT assay. It is filed as functional, organism-based, ISOLATE ROD. On the technique in general: Cytopathic effects are the visible damage that an infection or toxin causes in cultured cells.

A short description of data set [2]: Therapeutic index, ratio of TC50 for human CEM-SS cells to EC50 for HIV1 RF infected in human CEM-SS cells. Format: cell-based. The following applies: read-out: TI.
Data set [3] can be described thus: Therapeutic index, ratio of TC50 for human CEM-SS cells to EC50 for HIV2 ROD infected in human CEM-SS cells. Format: cell-based. Conditions: for selectivity ratio: CEM-SS cells, read-out: TI.
Data set [4] addresses Human immunodeficiency virus type 1 reverse transcriptase (Human immunodeficiency virus 1, UniProt Q72547). Kind of data set: Inhibition of wild type HIV1 reverse transcriptase assessed as 32P-labeled GMP incorporation into nascent DNA strand.
In data set [5] the target is Human immunodeficiency virus type 1 reverse transcriptase (Human immunodeficiency virus 1, UniProt Q72547, K103N). Kind of data set: Inhibition of HIV1 reverse transcriptase K103N mutant assessed as 32P-labeled GMP incorporation into nascent DNA strand.
The subject of data set [6] is Human immunodeficiency virus 1. Kind of data set: Antiviral activity against HIV1 infected in human HeLa cells expressing CD4-LTR assessed as inhibition of viral entry-related beta galactosidase expression treated for 2 hrs followed by drug wash out measured after 48 hrs by MAGI assay. It is filed as functional, organism-based. Conditions: Human immunodeficiency virus 1, HeLa.

Data set [7] is described as follows: Cytotoxicity against human HeLa cells expressing CD4-LTR by XTT assay. Format: cell-based. The following applies: read-out: TC50 (the source's name).
The nature of data set [8]: Therapeutic index, ratio of TC50 human HeLa cells expressing CD4-LTR to EC50 for HIV1 entry inhibition in human HeLa cells expressing CD4-LTR. It is filed as cell-based. The following applies: read-out: TI.
Data set [9] has as its system Human immunodeficiency virus 1. Kind of data set: Antiviral activity against HIV1 infected in human CEM-SS cells assessed as inhibition of viral replication and virus-induced cytopathic effect by dose-response curve analysis. Format: functional. The following applies: Human immunodeficiency virus 1, CEM-SS.
The test system of data set [10] is Human immunodeficiency virus 2. In words: Inhibition of HIV2 reverse transcriptase.
The test system of data set [11] is Human immunodeficiency virus 2. Kind of data set: Antiviral activity against HIV2 assessed as inhibition of viral single round replication at early time point. Format: functional, organism-based.
The subject of data set [12] is Human immunodeficiency virus 2. Kind of data set: Antiviral activity against HIV2 assessed as inhibition of viral replication treated at time points after viral entry into host cells. It is filed as functional, organism-based.
Data set [13] concerns Human immunodeficiency virus 2. Kind of data set: Inhibition of HIV2 reverse transcriptase assessed as 32P-labeled GMP incorporation into nascent DNA strand at highest concentration.
In data set [14] the test system is Human immunodeficiency virus 1. Kind of data set: Antiviral activity against HIV1 RF infected in human CEM-SS cells assessed as inhibition of virus-induced cytopathic effect by XTT assay. It is filed as functional, organism-based. Conditions: Human immunodeficiency virus 1, RF.
The nature of data set [15]: Cytotoxicity against human CEM-SS cells by XTT assay. It is filed as cell-based. The following applies: read-out: TC50 (the source's name). On the technique in general: Tetrazolium dyes change colour on reduction, which living cells bring about.
Setting [16] is: Human immunodeficiency virus 2, ISOLATE ROD, CEM-SS, read-out: EC50.

Active and inactive are the calls of the source. A value given as a limit tells only on which side of the number the result lay.

Take `CCc1c(C(=O)c2cc(C)cc(C)c2)n(CCC2=CCCC2)c(=O)[nH]c1=O`: the EC50 in data set [1] (setting [16]) was determined as 18.6 µM; in [6] it was 2.6 µM; in data set [14] it was 0.055 µM. Moreover, the results for the selectivity ratio in data set [2], in data set [3] and in [8] were 20100, more than 58.6 and 421, respectively. Besides, the IC50 in data set [4] is 2 µM; in data set [5], more than 273 µM. Moreover, the CC50 in data set [7] and in [15] was 1100 µM in each case. In addition, the EC99 in data set [9] stood at 1 µM. The result in data set [10], in [12] and in [13] was inactive. The result in data set [11] was Active.

Take `CCc1c(Sc2cc(C)cc(C)c2)n(CC2CCCC2)c(=O)[nH]c1=O`: the results for the EC50 in data set [1] (setting [16]), in data set [6] and in [14] were 3.2 µM, 0.14 µM and 0.056 µM, respectively. The selectivity ratio in data set [2] stood at 3980; in data set [3], 70.4; in data set [8] it was 1590. Also, the results for the IC50 in data set [4] and in data set [5] were 0.126 µM and 10.5 µM, respectively. In addition, the CC50 in [7] and in [15] was 222 µM throughout. Besides, in [9], the EC99 was determined as 1 µM. Also, the outcome in data set [10], in [12] and in data set [13] was inactive. Further, the result in data set [11] was Active.

On to `Cc1cc(C)cc(Sc2c(C(C)C)c(=O)[nH]c(=O)n2CC2CC2)c1`, for which the EC50 in data set [1] (setting [16]) worked out at 0.5 µM; in data set [6] it was 0.009 µM; in data set [14] it was 0.0003 µM. For the same compound, the selectivity ratio is 37600 in data set [2], 16.9 in data set [3] and 1180 in data set [8]. The IC50 in [4] is 0.003 µM; in data set [5], 1.47 µM. In addition, the CC50 in [7] is 10.3 µM; in data set [15] it was 7.8 µM. Further, the EC99 in data set [9] was 1 µM. The outcome in [10], in [12] and in [13] was inactive. The result in [11] was Active.

In the case of `Cc1cc(C)cc(Sc2c(C(C)C)c(=O)[nH]c(=O)n2CC2CCCCC2)c1`, the EC50 in data set [1] (setting [16]) was found to be 5.5 µM; in data set [6], 0.008 µM; in data set [14], 0.011 µM. Further, the values for the selectivity ratio in data set [2], in data set [3] and in [8] were 1560, 2.4 and 1890, respectively. In addition, the results for the half-maximal inhibitory concentration (IC50) in [4] and in [5] were 0.164 µM and more than 258 µM, respectively. Moreover, the CC50 in data set [7] worked out at 15.2 µM; in data set [15] it was 13.2 µM. In [9], the EC99 was 1 µM. In addition, the result in [10], in data set [12] and in data set [13] was inactive. For the same compound, the outcome in data set [11] was Active.

With `Cc1cc(C)cc(Sc2c(C(C)C)c(=O)[nH]c(=O)n2CCC2CCCC2)c1`, the EC50 entry in [1] (cem-ss) was “Not Active”; in data set [6], 1.28 µM; in data set [14], 0.15 µM. Also, the selectivity ratio amounted to 92 in data set [2] and 12 in [8]. Moreover, in data set [3] (cem-ss), the TI result is recorded as “Not Active”. Besides, the IC50 in data set [4] worked out at 0.233 µM; in data set [5], 205 µM. Also, the CC50 amounted to 15.4 µM in [7] and 14.2 µM in [15]. Further, in data set [9], the EC99 turned out to be 1 µM. The result in [10], in data set [12] and in data set [13] was inactive. Besides, in data set [11], the outcome was Active.

`CCc1c(Oc2cc(C)cc(C)c2)n(CCC2CC=CC2)c(=O)[nH]c1=O`: the EC50 is 1.5 µM in [1] (setting [16]), 1.95 µM in data set [6] and 0.23 µM in [14]. In addition, the figures for the selectivity ratio in data set [2], in data set [3] and in [8] were 4870, more than 734 and 570, respectively. The IC50 in [4] was 1.14 µM; in data set [5] it was 9.8 µM. In addition, the CC50 is 1110 µM in [7] and 1100 µM in data set [15]. Besides, in data set [9], the EC99 came to 1 µM. For the same compound, the result in data set [10], in data set [12] and in data set [13] was inactive. For the same compound, in data set [11], the outcome was Active.

On to `CC(C)c1c(C(=O)c2ccccc2)n(CC2CC=CC2)c(=O)[nH]c1=O`, for which the EC50 stood at 18.1 µM in [1] (setting [16]), 0.8 µM in data set [6] and 0.0059 µM in data set [14]. Further, the selectivity ratio in data set [2] was 200000; in data set [3], more than 65.5; in [8] it was 1480. For the same compound, the IC50 in data set [4] is 0.18 µM; in data set [5], more than 295 µM. Besides, the CC50 in data set [7] and in [15] was 1180 µM throughout. Also, the EC99 in data set [9] came to 1 µM. Besides, the outcome in data set [10], in data set [12] and in data set [13] was inactive. Also, the outcome in data set [11] was Active.

In the case of `CCc1c(C(=O)c2ccccc2)n(CC2CC=CC2)c(=O)[nH]c1=O`, the EC50 in data set [1] (setting [16]) is 30.9 µM; in data set [6] it was 2.93 µM; in [14] it was 0.0617 µM. Moreover, the figures for the selectivity ratio in data set [2], in data set [3] and in data set [8] were 1440, 2.9 and 30, respectively. Also, the half-maximal inhibitory concentration (IC50) in data set [4] was 0.256 µM; in data set [5] it was 134 µM. The CC50 in data set [7] and in data set [15] was 88.5 µM in each case. For the same compound, in [9], the EC99 was 1 µM. For the same compound, the outcome in data set [10], in data set [12] and in data set [13] was inactive. Besides, the outcome in data set [11] was Active.

Consider `CCc1c(Oc2cc(C)cc(C)c2)n(CC2=CCCC2)c(=O)[nH]c1=O`, for which the EC50 in [1] (setting [16]) worked out at 1.3 µM; in data set [6] it was 0.009 µM; in data set [14], 0.016 µM. In addition, the selectivity ratio in data set [2] was determined as 4080; in data set [3], 47.6; in [8] it was 7280. In addition, the IC50 in data set [4] came out at 0.122 µM; in [5], 0.22 µM. The CC50 in [7] and in [15] was 62.9 µM throughout. Besides, the EC99 in [9] was determined as 1 µM. For the same compound, the outcome in data set [10], in data set [12] and in data set [13] was inactive. Moreover, the outcome in data set [11] was Active.

With `CCc1c(Oc2cc(C)cc(C)c2)n(CCC2C=CCC2)c(=O)[nH]c1=O` (stereo not given), the results for the EC50 in data set [1] (setting [16]), in data set [6] and in data set [14] were 0.7 µM, 0.06 µM and 0.0019 µM, respectively. Moreover, the selectivity ratio in data set [2] was 570000; in data set [3], more than 1650; in data set [8] it was 17600. For the same compound, the IC50 in data set [4] stood at 0.21 µM; in data set [5], 1.96 µM. Besides, the results for the CC50 in [7] and in data set [15] were 1110 µM and 1100 µM, respectively. In addition, the EC99 in [9] came to 1 µM. Also, the result in data set [10], in data set [12] and in data set [13] was inactive. Besides, the outcome in data set [11] was Active.

Take `CCc1c(C(=O)c2cc(C)cc(C)c2)n(CC2CCCC2)c(=O)[nH]c1=O`: the EC50 was 0.8 µM in data set [1] (setting [16]), 0.25 µM in data set [6] and 0.0034 µM in data set [14]. In addition, the selectivity ratio was 74700 in data set [2], 299 in data set [3] and 996 in data set [8]. Besides, the IC50 in data set [4] came out at 0.169 µM; in data set [5], 6.9 µM. Besides, the CC50 in data set [7] and in data set [15] was 253 µM throughout. Moreover, the EC99 in data set [9] amounted to 1 µM. For the same compound, the outcome in data set [10], in [12] and in data set [13] was inactive. In addition, the result in data set [11] was Active.

For the compound `CC(C)c1c(Oc2ccccc2)n(CC2CC=CC2)c(=O)[nH]c1=O`, the values for the EC50 in [1] (setting [16]), in data set [6] and in data set [14] were 30.7 µM, 0.26 µM and 0.02 µM, respectively. Moreover, the selectivity ratio in data set [2] came to 55200; in data set [3] it was 37.1; in data set [8], 4370. In addition, the half-maximal inhibitory concentration (IC50) in [4] was 4.91 µM; in [5] it was more than 306 µM. Further, the CC50 was 1120 µM in data set [7] and 1100 µM in data set [15]. In addition, the EC99 in data set [9] turned out to be 1 µM. Moreover, the result in data set [10], in [12] and in [13] was inactive. In addition, the outcome in data set [11] was Active.

As a reminder, the EC50 is the midpoint of the concentration-response curve. As usually defined, the IC50 is the midpoint of a concentration-inhibition curve. For orientation: EC99 means the point of the concentration-response curve where the effect stands at 99%.
